From patent US4260603A, “Sterol glycoside with activity as prostaglandin synthetase inhibitor” (priority 1979, dated 1981) come the findings set out here.

In brackets after ≈: the same amount, converted by molar mass.

Data set [1] in a line: physchem. The format is physicochemical. The conditions noted are these: water. From the text:
According to the described process there can also be produced solutions of other sterol disaccharides. […] This solubility is above the preferred individual doses employed of the compounds.

The nature of data set [2]: Acute toxicity by oral administration. It counts as in vivo, rate, mice rabbits, dogs and primates. To be noted: doses of 1 to 2 grams/kg of body weight.
The nature of data set [3]: Toxicity on administration over a long period of time. The format is in vivo, rate, mice rabbits, dogs and primates. The conditions noted are these: daily doses of 100 to 200 mg/kg of body weight over a long period of time.
Data set [4] has as its system arthritis of rats caused by erysipeloid (strain T 28). Description: Erysipeloid arthritis of rats, evaluation of aorta thrombes. It counts as in vivo, Male wistar rats. To be noted: 5 mg/kg i.p., 5 times per week from infection day; comparison group 2.80. From the text: When comparing arthritis based on experimental erysipeloid of for example rats with human rheumatic arthritis an extensive correspondence of the morphological changes can be observed. The tests had been made according to the publication of Schulz et al. Beitr. Path. 154, 1-26, 27-51 (1975). The arthritis of rats caused by erysipeloid can be reproduced with nearly 100 percent effectiveness with a single injection. In case of arthritis caused by erysipeloid always more than 6 joints of the limbs are transformed, namely big and small joints of the limbs in the same manner.
In the test of the compounds the following parameters of the manifestation phase had been used for estimating the activity of the compound.
With rats fibrine-rich thrombes occur about 6th to 11th day of the intima of the aorta. The largest space covered is about 8th day.
Male wistar rats with a body weight of 150 to 180 g were used for the tests. The animals had been kept in single cages and got a rat standard diet (Ssniff R) and water ad libitum.
The infection was carried out with the erysipeloid strain T 28. The dosage was 2 ml s.c. (about 100-200 millions germs). The compounds to be tested had been suspended in sterile saline solution and had been injected i.p. in a dosage of 5 mg/kg body weight. The treatment was 5 times per week from infection day to end of test or death of animal.

For the compound `CC[C@H](CC[C@@H](C)[C@H]1CC[C@H]2[C@@H]3CC=C4C[C@@H](O[C@@H]5O[C@H](CO)[C@@H](O[C@@H]6O[C@H](CO)[C@@H](O)[C@H](O)[C@H]6O)[C@H](O)[C@H]5O)CC[C@]4(C)[C@H]3CC[C@]12C)C(C)C` [β-D-cellobioside of sitosterol], the concentration in solution in data set [1] (solubility) came to 750 µg/mL (≈ 1010 µM). On to `CC[C@H](CC[C@@H](C)[C@H]1CC[C@H]2[C@@H]3CC=C4C[C@@H](O[C@@H]5O[C@H](CO)[C@@H](O)[C@H](O)[C@H]5O)CC[C@]4(C)[C@H]3CC[C@]12C)C(C)C` [sitosterol-β-D-glucoside, Sitosterol-β-D-Glucoside], for which the acute toxicity result in data set [2] was “no toxic effects”. In addition, the tolerance result in data set [3] was “good”. Further, the “evaluation of aorta thrombes (value)” value in data set [4] is 2.00.

As for `CC[C@H](CC[C@@H](C)[C@H]1CC[C@H]2[C@@H]3CC=C4C[C@@H](O[C@@H]5O[C@H](CO)[C@@H](O[C@@H]6O[C@H](CO)[C@H](O)[C@H](O)[C@H]6O)[C@H](O)[C@H]5O)CC[C@]4(C)[C@H]3CC[C@]12C)C(C)C` [β-D-lactoside of sitosterol], the solubility (commonly the concentration that dissolves in the medium under given conditions) in data set [1] worked out at 210 µg/mL (≈ 284 µM). `C[C@@H]1CC[C@@]2(OC1)O[C@H]1C[C@H]3[C@@H]4CC[C@H]5C[C@@H](O[C@@H]6O[C@H](CO)[C@@H](O)[C@H](O)[C@H]6O)CC[C@]5(C)[C@H]4CC(=O)[C@]3(C)[C@H]1[C@@H]2C` [hecogeninglucoside, hecogenin β-D-glucoside]: in data set [4], the “evaluation of aorta thrombes (value)” value turned out to be 1.38.

`C[C@@H]1CC[C@@]2(OC1)O[C@H]1C[C@H]3[C@@H]4CC=C5C[C@@H](O[C@@H]6O[C@H](CO)[C@@H](O)[C@H](O)[C@H]6O)CC[C@]5(C)[C@H]4CC[C@]3(C)[C@H]1[C@@H]2C` [diosgeninglucoside, diosgenin-3-β-D-Glucoside]: the “evaluation of aorta thrombes (value)” value in data set [4] was 1.33.
